Laboratory results from ChEMBL document CHEMBL1770151, “An efficient and expedient method for the synthesis of 11C-labeled α-aminoisobutyric acid: a tumor imaging agent potentially useful for cancer diagnosis” (Bioorg Med Chem Lett, 2011).

Tests used:
[1] = Drug uptake in human SY-cells xenografted mouse tumor at 20 MBq, iv after 50 to 60 mins by positron emission tomography; type: ADME, organism-based, Neoplasm; conditions: in vivo
[2] = Drug uptake in human SY-cells xenografted mouse tumor at 200 kBq, iv after 15 to 25 mins by positron emission tomography; type: ADME, organism-based, Neoplasm; conditions: in vivo

Row | SMILES | Drug uptake [1] | Drug uptake [2]
1 | CC([11CH3])(N)C(=O)O (stereo not drawn) | Active | 
2 | [11CH3]SCC[C@H](N)C(=O)O | Active | 
3 | OC[C@H]1O[C@@H](O)[C@H]([18F])[C@@H](O)[C@@H]1O [FLUDEOXYGLUCOSE-F18] |  | Active
